Where two headings read alike, the source gives them in different places.
How the values were obtained:
[1] = tested on: rats; settings: cited from earlier work
[2] = tested on: rats; settings: cited from earlier work; remark: listed apart in the source
[3] = tested on: rats; settings: cited from earlier work; remark: listed apart in the source
[4] = cited from earlier work
[5] = tested on: METH-evoked DA release; settings: cited from earlier work
[6] = target: T1, VMAT2 (Rattus norvegicus, UniProt Q01827); assay: [3H]DTBZ binding to rat synaptic vesicle membranes
T1 sequence (Q01827 whole entry): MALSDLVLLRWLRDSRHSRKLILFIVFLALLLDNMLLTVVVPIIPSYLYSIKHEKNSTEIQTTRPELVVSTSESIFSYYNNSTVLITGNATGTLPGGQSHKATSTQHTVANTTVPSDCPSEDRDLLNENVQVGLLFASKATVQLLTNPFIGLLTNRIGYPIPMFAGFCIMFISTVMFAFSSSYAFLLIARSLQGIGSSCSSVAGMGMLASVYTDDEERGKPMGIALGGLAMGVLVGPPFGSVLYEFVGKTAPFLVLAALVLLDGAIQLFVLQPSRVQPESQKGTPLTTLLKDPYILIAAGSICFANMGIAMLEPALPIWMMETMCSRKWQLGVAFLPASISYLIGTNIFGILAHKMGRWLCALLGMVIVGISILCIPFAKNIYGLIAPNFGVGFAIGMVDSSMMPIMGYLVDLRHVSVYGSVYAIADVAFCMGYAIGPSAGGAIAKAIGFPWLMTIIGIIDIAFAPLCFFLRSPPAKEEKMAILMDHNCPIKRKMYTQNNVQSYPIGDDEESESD

[7] = target: T1, VMAT2; assay: inhibition of [3H]DA uptake into rat striatal synaptic vesicles; type: biochemical
[8] = water solubility; type: physicochemical
[9] = tested on: nAChRs; settings: cited from earlier work
[10] = tested on: rats; assay: METH self-administration; type: in vivo, rat; settings: preliminary data
[11] = target: T1, VMAT2; settings: cited from earlier work
[12] = tested on: rats; settings: cited from earlier work; remark: listed apart in the source
[13] = target: T1, VMAT2; settings: read-out: [3H]DTBZ Ki ± SEM; Table 1; rat synaptic vesicle membranes; ref 12b; cited from earlier work

COc1ccc(CC[C@H]2CCC[C@@H](CCc3ccc(OC)cc3)N2C[C@@H](O)CO)cc1 [Compound 19a]
effect on food-maintained responding [1]: without altering food-maintained responding
effect on METH CPP [2]: effectively decreases
duration of action to inhibit METH SA within a behavioral session ([3]; compared to lobeline and lobelane): significantly increased duration of action
effect on METH SA ([3]; rats): effectively decreases
tolerance to decrease of METH SA and CPP after repeated dosing ([3]; repeated dosing): not observed
CPP produced by the compound (abuse liability) [4]: does not produce CPP
self-administration of the compound (abuse liability) [4]: not self-administered
effect on METH-evoked DA release ([5]; vesicles and striatal slices): decreasing METH-evoked DA release from vesicles and striatal slices without intrinsic activity

CN(C)N1[C@@H](CCc2ccccc2)CCC[C@H]1CCc1ccccc1 [Compound 13]
affinity at the [3H]DTBZ binding site [6]: no affinity
potency inhibiting [3H]DA uptake at VMAT2 relative to lobelane [7]: equipotent to lobelane

CN1[C@@H](CCc2ccccc2)CCC[C@H]1CCc1ccccc1 [Compound 2, lobelane, reference compound]
effect on food-maintained responding [1]: without altering food-maintained responding
effect on METH self-administration (SA) ([3]; rats): dose-dependently decreases METH self-administration
water solubility [8]: low water solubility
activity at nAChRs ([9]; compared to lobeline): negligible activity

OC[C@H](O)CN1[C@@H](CCc2ccccc2)CCC[C@H]1CCc1ccccc1 [Compound 14a]
effect on METH SA, preliminary in vivo screens [10]: decrease in METH SA in rats

c1ccc(CC[C@H]2CCC[C@@H](CCc3ccccc3)N2)cc1 [Compound 3, nor-lobelane]
potency for VMAT2 binding and inhibition relative to lobelane [11]: equal potency to lobelane

CN1[C@@H](CC(=O)c2ccccc2)CCC[C@H]1C[C@H](O)c1ccccc1 [Compound 1, (−)-lobeline]
affinity at nAChR α4β2* subtype ([9]; α4β2* subtype): high affinity
effect on METH-induced behavioral effects [12]: attenuates METH-induced behavioral effects
effect on METH-evoked DA release ([5]; rat striatal slices): inhibits METH-evoked DA release from rat striatal slices

N#CCN1[C@@H](CCc2ccccc2)CCC[C@H]1CCc1ccccc1 [Compound 8]
fold lower potency in inhibiting [3H]DA uptake at VMAT2 compared to lobelane ([7]; relative to lobelane): 100 fold

CCN1[C@@H](CCc2ccccc2)CCC[C@H]1CCc1ccccc1 [Compound 4]
Ki [13]: 3.41 ± 0.67 µM

CCCN1[C@@H](CCc2ccccc2)CCC[C@H]1CCc1ccccc1 [Compound 5]
Ki [13]: 1.87 ± 0.25 µM

From publication PMC3602417 (MedChemComm, 2013)
